These results are taken from PubChem BioAssay AID179 (DTP/NCI, 2004).

Molecules are shown by their SMILES. Several values for one entry are separate records, joined by “and”; a condition that tells them apart may be missing. Identical values can stand only once. Activity calls are given as the source filed them.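 How the source made its calls: active means compounds giving half or more protection of infected cells from virus-caused growth loss, again on retest; inactive means the rest.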 Where only a bound is given, the exact number is not on record here.

The EC50 is the concentration that produces a half-maximal response. A word on the IC50: it is the concentration needed to halve the response being measured. Read a high IC50 as lower potency.

In this experiment the test system is CEM cells HIV-1 protection, formazan growth assay. As to the kind of experiment: NCI AIDS Antiviral Assay. The settings on record: for IC50: measured here: growth of uninfected CEM cells. An outline of the steps: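 Protection of CEM cells against HIV-1 measured as cell growth via soluble formazan read-out, with five concentrations tested on both infected and uninfected cells; failure to protect may reflect toxicity.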

On to `NC1CCC2(O)c3ccccc3C2C1` (centres undefined), for which the EC50 is over 200 µM and the IC50 was over 200 µM.

In the case of `COC1OC2=CCC3C(=O)NC(=O)C3C2[C@H](OC)C1OC` (some centres undefined), the outcome was inactive. Turning to `CN(C)CCN(C)C(=O)C1CCCN1C(=O)OCc1ccccc1` (centres undefined), the EC50 is over 759 µM and the IC50 is 46.8 µM. The like results for `O=C(N/N=C(/c1nc2ccc(Cl)cc2[nH]c1=O)C(O)c1ccc(Cl)cc1Cl)c1ccncc1` (centres undefined) were, in that order, over 501 µM and 162 µM.

Consider `COc1cc(C(c2ccc3c(c2)OCO3)N2C(=O)CCC2C(=O)O)cc(OC)c1OC` (centres undefined), for which the EC50 is over 200 µM and the IC50 is over 200 µM.

`C=CC1(C)CCC2C(=CCC3C(C)(COC4OC(CO)C(O)C(O)C4O)C(O)CCC23C)C1` (centres undefined): the EC50 was over 200 µM and the IC50 is over 100 µM. The like results for `CN(CCC#N)c1ccc(/C=C2\SC(=S)NC2=O)cc1` were, in that order, over 200 µM and 34.7 µM. On to `FC(F)(Sc1ncccn1)c1nc(-c2ccccc2)no1`, for which the EC50 is over 200 µM and the IC50 was found to be 53.7 µM.

With `COC(=O)c1c2c(c(-c3ccccc3)c3c1-c1nc(Cl)ccc1CC3)CCc1ccc(Cl)nc1-2`, the EC50 was over 20.4 µM and the IC50 was over 20.4 µM. Turning to `CCOP(=O)(C=C=C1CCC2[C@@H]3CCc4cc(OC)ccc4C3CC[C@]12C)OCC` (some centres undefined), the EC50 was over 200 µM and the half-inhibitory concentration (IC50) turned out to be 2.09 µM.

On to `COC(=O)/N=c1\cc(N2CC=CCC2)nc(N)n1O`, for which the EC50 is over 200 µM and the IC50 is over 200 µM. In the case of `CC1(C(=O)O)OC12CCCCC2` (centres undefined), the EC50 is over 200 µM and the IC50 was over 200 µM. Take `COC(=O)C1=C2Nc3ccccc3C[C@@]23CCN2CCC[C@@](C(C)OC(=O)C=C(C)C)(C1)C23` (some centres undefined): the EC50 was over 200 µM and the IC50 was determined as 23.4 µM. In the same order, the values of `N#Cc1c(=O)c2cccnc2n2c1[nH]c1ccccc12` are over 200 µM and over 200 µM.

Regarding `O=S(=O)(O)C(O)CC=C(C(O)S(=O)(=O)O)C(O)S(=O)(=O)O` (centres undefined), the EC50 was over 200 µM and the IC50 was 81.3 µM.

On to `COC(=O)C1(Cc2ccc3c(c2)CCC3)Cc2ccc3c(c2C1O)CCC3` (centres undefined), for which the EC50 is over 200 µM and the IC50 came out at 12.3 µM.

Turning to `COc1cccc(Nc2nc(N)nc(N)c2N=O)c1`, the EC50 was over 200 µM and the IC50 came to 11.2 µM. On to `CCOc1cc(NCCCN)c2nc(OCc3ccccc3)ccc2c1`, for which the EC50 was over 200 µM and the IC50 turned out to be 25.7 µM. For `CCOC(=O)C(=CNC(=S)Nc1c(CC)cccc1C(C)(C)C)C(=O)OCC`, the EC50 was over 200 µM and the IC50 was over 200 µM. With `COC(=O)C1C(O)C(C)C(O)C(C)C=C(C)C2=C3C(=C(C)C(=O)c4c(O)c(c(C)c(OC(C)=O)c43)NC(=O)C(C)=C/C=C\C(C)C(O)C(C)C1O)OCO2` (centres undefined), the EC50 is over 77.6 µM. Turning to `O=C(O)Cc1cccc2c(=O)c3cccc([N+](=O)[O-])c3oc12`, the EC50 is over 200 µM and the IC50 was over 200 µM. In the case of `O=c1ccc(-c2ccc(-n3ccnc3)cc2)nn1CCO`, the EC50 is over 200 µM and the IC50 is over 200 µM. On to `CC[C@@H](C(=O)[C@@H](C)[C@@H](O)[C@H](C)CCc1ccc(C)c(O)c1C(=O)O)[C@H]1O[C@](CC)([C@H]2CC[C@](O)(CC)[C@H](C)O2)C[C@@H]1C`, for which the EC50 is 1.51 µM and the half-inhibitory concentration (IC50) amounted to 1.82 µM. Consider `CN(C)NC1=NS(=O)(=O)c2cc3c(cc2S1)N(N(C)C)C(=O)c1cc2c(cc1N(N(C)C)C3=O)SC(NN(C)C)=NS2(=O)=O`, for which the EC50 is over 200 µM and the half-inhibitory concentration (IC50) was 141 µM. In the same order, the values of `Cc1cc(=N)cc(C)n1O` are over 1820 µM and over 1820 µM. In the same order, the values of `N=C(N)Cn1cnc2ccccc21` are over 5500 µM and 4680 µM. The like results for `N#Cc1cccc(C[P+](c2ccccc2)(c2ccccc2)c2ccccc2)c1` were, in that order, over 200 µM and 135 µM. Consider `Cc1cc2c(cc1C)NC(=O)CC(c1ccccc1)=N2`, for which the EC50 was over 200 µM and the IC50 was over 200 µM. For the molecule `Cc1ccc(Nc2nc3c(s2)C(=O)c2ccccc2C3=O)cc1`, the EC50 is over 16.2 µM and the IC50 worked out at 6.17 µM. In the same order, the values of `CC(Oc1ccc(OCC2CCCCC2)cc1)C(=O)NCCO` (centres undefined) are over 295 µM and 41.7 µM.

`C=C1c2c(C)coc2C(=O)c2c(O)cc(OC)c(C)c21`: the outcome was inactive. Turning to `O=C(O)CC/C(=N\Nc1nsc2ccccc12)c1ccccc1`, the EC50 is over 11.5 µM and the IC50 amounted to 8.13 µM. As to `CCCCc1cc(=O)oc2c3c(c4c(c12)OC(C)(C)CC4)O[C@@H](C)[C@H](C)[C@@H]3O`, the EC50 was 2.69 µM and the IC50 came out at 10.5 µM.

In the case of `COc1ccc2c(c1O)C1=CC(=O)CC[C@]13CCN(C)[C@H]3C2`, the EC50 is over 832 µM and the IC50 was 661 µM. The like results for `Cc1c(CCC(C)C)oc2cc3oc(CCC(C)C)c(C)c3cc12` were, in that order, over 70.8 µM and over 70.8 µM. In the same order, the values of `COC(=O)c1cc(=O)n(Cc2ccco2)c(=Nc2ccccc2)s1` are over 100 µM and 13.8 µM. The like results for `Nc1nn2cc3c(nc2c1N=Nc1ccccc1)-c1ccccc1C3` were, in that order, over 200 µM and over 200 µM. On to `CC(C)(C)[Si](C)(C)OC1C(/C=N\O)OC(n2cnc3c(N)ncnc32)C1O[Si](C)(C)C(C)(C)C` (centres undefined), for which the EC50 is over 200 µM and the concentration for half-maximal inhibition (IC50) amounted to 3.02 µM. Consider `CC(c1ccccc1)n1c2ccccc2c2c(N)ncnc21` (centres undefined), for which the EC50 is over 200 µM and the 50% inhibitory concentration (IC50) is 17.8 µM. Consider `COc1ccc(C(c2c(O)c3ccccc3oc2=O)N2CCCC2)cc1` (centres undefined), for which the EC50 was over 200 µM and the 50% inhibitory concentration (IC50) is 123 µM. In the same order, the values of `O=C(O)c1ccc(S(=O)(=O)c2ccccc2)c([N+](=O)[O-])c1` are over 2510 µM and 288 µM. The like results for `COc1ccc(C2(OC)Oc3ccccc3-c3nc4ccccc4nc32)cc1` (centres undefined) were, in that order, over 69.2 µM and over 69.2 µM. In the same order, the values of `COC(=O)c1cc(C(=CC=O)c2cc(Cl)c(OC)c(C(=O)OC)c2)cc(Cl)c1OC` are over 200 µM and 8.91 µM. Regarding `CC(=O)N(CN1C(=O)CCC1C(=O)O)c1ccccc1Cl` (centres undefined), the result was inactive. Turning to `COc1cccc(/C=N/[N-]C(N)=O)c1[O-].[Co+2].[OH3+].c1ccncc1`, the EC50 was over 14.5 µM and the IC50 is over 14.5 µM. `CCC[CH2][Sn]([CH2]CCC)([O]C(=O)c1nccnc1N)[O]C(=O)c1nccnc1N`: the EC50 is over 51.3 µM and the IC50 was determined as 0.288 µM. The like results for `CN(C)C=Nc1c(Br)cc(Br)c2nonc12` were, in that order, over 200 µM and over 200 µM. In the same order, the values of `NNC(=S)N/N=C(/C(=O)Nc1ccc([N+](=O)[O-])cc1)c1nc2ccc([N+](=O)[O-])cc2[nH]c1=O` are over 145 µM and over 145 µM. With `O=C1C2C3C=C4c5ccccc5N(c5ccccc5)C4(C2C(=O)N1Cc1ccccc1)C1C(=O)N(Cc2ccccc2)C(=O)C31` (centres undefined), the result was inactive.

`CCCCC1(OC(=O)CCC(=O)O)CCC2(CCC(C)C(C/C=C(C)/C=C/C(O)C(C)/C=C/C(=O)O)O2)OC1CC/C(C)=C/C(=O)O` (centres undefined): the EC50 is over 3.8 µM and the IC50 was found to be 1.29 µM. In the same order, the values of `Nc1nc(Cl)c(C=O)c(NCC2(CO)CC(CCc3ccccc3)C2)n1` (centres undefined) are over 200 µM and 3.98 µM. In the same order, the values of `Nc1ccc2ccc(N3CCNCC3)nc2n1` are over 200 µM and 46.8 µM. As for `N#CC(C#N)=C1SC(=Nc2ccccc2)C(=Nc2ccccc2)N1c1ccccc1`, the EC50 was over 200 µM and the IC50 came out at 1 µM. The like results for `NS(=O)(=O)c1ccc(CNC(=O)c2ccccc2SC(=O)CCCCC[n+]2ccccc2)cc1` were, in that order, 2.14 µM and 39.8 µM. For the molecule `N#Cc1c(-c2ccccc2)cc(-c2ccccc2)n(C2OCC(O)C(O)C2O)c1=S` (centres undefined), the EC50 is over 200 µM and the IC50 is 21.4 µM. Turning to `Cc1ccc(S(=O)(=O)N(CCNC(=O)c2cccc(O)c2O)c2cc3c4c(c2)Oc2cccc5c2C4(C)c2c(cccc2O3)O5)cc1`, the EC50 is over 200 µM and the IC50 turned out to be 10.7 µM. As to `CCCc1cc(=O)oc2c3c(c4c(c12)OC(C)(C)C=C4)O[C@H](C)[C@@H](C)[C@@H]3OC(C)=O`, the EC50 is 1.7 µM and the 50% inhibitory concentration (IC50) is 26.9 µM. The like results for `FC(F)(F)c1ccc2nc(NCc3ccccc3)c(-c3ccccc3)nc2c1` were, in that order, over 19.1 µM and over 19.1 µM. Turning to `O=C1CCCC(C(Sc2ccccc2)(Sc2ccccc2)Sc2ccccc2)C1` (centres undefined), the EC50 is over 200 µM and the IC50 is 12 µM. As for `Clc1ccc(SSc2ccc(Cl)cc2)cc1`, the EC50 was over 200 µM; the IC50 was 3.31 µM and 5.13 µM. As to `Cc1ccnc(NS(=O)(=O)c2ccc(NC(=O)c3ccc4nc5ccccc5c(Nc5ccc(S(=O)(=O)Nc6nccc(C)n6)cc5)c4c3)cc2)n1`, the EC50 is over 200 µM and the IC50 worked out at 83.2 µM. The like results for `O=S(=O)(O)c1cc(O)c2c(O)cc(S(=O)(=O)O)cc2c1` were, in that order, 347 µM and 550 µM. Turning to `CCOC(=O)N(C)C(=C(F)F)C(F)(F)F`, the EC50 was over 200 µM and the IC50 was over 200 µM.

As for `NC(CSSCC(N)C(=O)O)C(=O)O` (centres undefined), the EC50 was over 200 µM and the IC50 is over 200 µM.

For `O=C(O)c1c(O)ccc(N=Nc2ccc(N=Nc3ccc4c(S(=O)(=O)O)cccc4c3O)c3ccccc23)c1O`, the EC50 is over 100 µM and the IC50 was over 100 µM.

As for `O=C1C(CN(Cc2ccccc2)Cc2ccccc2)CCCC1CN(Cc1ccccc1)Cc1ccccc1` (centres undefined), the EC50 is over 26.3 µM, the result was inactive and the IC50 was over 26.3 µM. On to `COC(=O)c1c(C)cccc1C1CN=NC12Cc1ccccc1C2=O` (centres undefined), for which the EC50 is 27.5 µM and the IC50 is 102 µM. The like results for `CC(C)(C)OC(=O)C(C#N)C(=O)c1ccc(C(=O)O)[nH]1` (centres undefined) were, in that order, over 200 µM and 23.4 µM. In the case of `COC(=O)c1cc(C(=CCCCCCBr)c2cc(Cl)c(OC)c(C(=O)OC)c2)cc(Cl)c1OC`, the EC50 was over 4.79 µM and the IC50 was over 4.79 µM.
